From ChEMBL document CHEMBL1147755, “5-heteroatom substituted pyrazoles as canine COX-2 inhibitors. Part 1: Structure-activity relationship studies of 5-alkylamino pyrazoles and discovery of a potent, selective, and orally active analog” (Bioorg Med Chem Lett, 2006)
Calls of active or inactive are those of the source. The calls are words filed in the database; no cut-off is given here.

How the values were obtained:
[1] = organism: Canis lupus familiaris; test: Selectivity of COX1 over COX2 in canine whole blood assay; format: tissue-based
[2] = biological target: T1, Prostaglandin G/H synthase 1 (Canis lupus familiaris, UniProt Q8HZR1)
T1 sequence (Q8HZR1 whole entry): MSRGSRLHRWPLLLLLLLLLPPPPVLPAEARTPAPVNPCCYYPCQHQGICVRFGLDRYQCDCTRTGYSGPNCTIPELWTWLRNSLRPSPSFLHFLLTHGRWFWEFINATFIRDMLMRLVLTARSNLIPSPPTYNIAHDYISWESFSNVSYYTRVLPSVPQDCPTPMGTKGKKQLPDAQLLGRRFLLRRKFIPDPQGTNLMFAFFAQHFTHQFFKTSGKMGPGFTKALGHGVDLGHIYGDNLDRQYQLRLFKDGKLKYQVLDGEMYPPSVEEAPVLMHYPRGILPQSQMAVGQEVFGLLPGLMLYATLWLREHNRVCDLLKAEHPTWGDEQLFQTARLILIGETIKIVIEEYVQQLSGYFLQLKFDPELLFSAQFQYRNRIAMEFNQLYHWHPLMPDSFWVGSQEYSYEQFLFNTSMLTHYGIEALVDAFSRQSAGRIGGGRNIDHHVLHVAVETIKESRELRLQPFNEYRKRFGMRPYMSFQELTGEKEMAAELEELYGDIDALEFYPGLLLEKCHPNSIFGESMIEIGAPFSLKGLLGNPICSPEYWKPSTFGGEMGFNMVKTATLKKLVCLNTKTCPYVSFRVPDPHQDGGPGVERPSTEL
Description: Inhibitory activity against COX1 in canine whole blood

[3] = biological target: T2, Cyclooxygenase-2 (Canis lupus familiaris, UniProt Q8SPQ9)
T2 sequence (Q8SPQ9 whole entry): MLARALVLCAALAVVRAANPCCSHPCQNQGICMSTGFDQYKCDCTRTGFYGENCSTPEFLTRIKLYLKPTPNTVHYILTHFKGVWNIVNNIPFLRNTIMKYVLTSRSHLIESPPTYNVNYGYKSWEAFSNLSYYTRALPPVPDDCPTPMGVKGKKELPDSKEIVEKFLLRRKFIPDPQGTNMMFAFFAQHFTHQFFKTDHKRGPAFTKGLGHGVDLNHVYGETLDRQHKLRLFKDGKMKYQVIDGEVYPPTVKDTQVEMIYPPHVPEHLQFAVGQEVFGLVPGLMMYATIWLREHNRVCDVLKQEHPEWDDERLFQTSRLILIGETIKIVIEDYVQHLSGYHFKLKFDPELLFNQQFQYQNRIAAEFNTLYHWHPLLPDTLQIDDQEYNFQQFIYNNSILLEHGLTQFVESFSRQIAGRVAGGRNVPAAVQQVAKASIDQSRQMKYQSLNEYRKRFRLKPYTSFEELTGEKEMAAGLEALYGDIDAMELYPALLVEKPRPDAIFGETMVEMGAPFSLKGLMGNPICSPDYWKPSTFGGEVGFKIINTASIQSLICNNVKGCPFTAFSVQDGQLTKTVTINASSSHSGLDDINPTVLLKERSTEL
Description: Inhibitory activity against COX2 in canine whole blood

[4] = Cmax in dog administered at 2 mg/kg, po; format: ADME, organism-based, Canis lupus familiaris; design: dose 2 mg/kg, route oral; details: in vivo
[5] = Tmax in dog administered at 2 mg/kg, po; format: ADME, organism-based, Canis lupus familiaris; design: dose 2 mg/kg, route oral; details: in vivo
[6] = tested on: Canis familiaris; test: AUC in dog administered at 2 mg/kg, po; format: ADME, organism-based, Canis lupus familiaris, Plasma; design: dose 2 mg/kg, route oral; details: in vivo
[7] = Half life in dog administered at 2 mg/kg, po; format: ADME, organism-based, Canis lupus familiaris; design: dose 2 mg/kg, route oral; details: in vivo
[8] = tested on: Canis familiaris; test: Decrease in lameness induced by synovitis in knee joints of Beagle dogs at 4 mg/kg; format: functional, organism-based; design: dose 4 mg/kg; details: Canis lupus familiaris, Knee joint
[9] = Tmax in cat administered at 0.5 mg/kg, sc; format: ADME, organism-based, Felis catus; design: dose 0.5 mg/kg, route subcutaneous; details: in vivo
[10] = Half life in cat administered at 0.5 mg/kg, sc; format: ADME, organism-based, Felis catus; design: dose 0.5 mg/kg, route subcutaneous; details: in vivo
[11] = Cmax in cat administered at 0.5 mg/kg, sc; format: ADME, organism-based, Felis catus; design: dose 0.5 mg/kg, route subcutaneous; details: in vivo
[12] = AUC in cat administered at 0.5 mg/kg, sc; format: ADME, organism-based, Felis catus; design: dose 0.5 mg/kg, route subcutaneous; details: plasma

IC50 [2] [nM] | IC50 [3] [nM] | Cmax [4] [ng/mL] | Tmax [5] [h] | AUC [6] [ng·h/mL] | half-life [7] [h] | Compound | Ratio IC50 [1] | Activity [8] | Tmax [9] [h] | half-life [10] [h] | Cmax [11] [ng/mL] | AUC [12] [ng·h/mL]
> 50000 | 7900 |  |  |  |  | C[C@@H]1CN(c2c(C#N)c(C(F)(F)F)nn2-c2ccc(S(N)(=O)=O)cn2)C[C@H](C)O1 | > 6.3 |  |  |  |  | 
10800 | 297 |  |  |  |  | CC1CCCCC1Nc1c(C#N)c(C(F)(F)F)nn1-c1ccc(S(C)(=O)=O)cn1 (configuration not stated) | 36 |  |  |  |  | 
4500 | 190 | 310 | 1.3 | 910 | 2.4 | CCC(C)CNc1c(C#N)c(C(F)(F)F)nn1-c1ccc(S(N)(=O)=O)cn1 (configuration not stated) | 23.1 |  |  |  |  | 
12900 | 130 | 92 | 0.8 | 281 | 2.1 | CS(=O)(=O)c1ccc(-n2nc(C(F)F)c(C#N)c2N2CCCCCC2)nc1 | 99.3 |  |  |  |  | 
42600 | 1870 |  |  |  |  | CC1CC(C)CN(c2c(C#N)c(C(F)(F)F)nn2-c2ccc(S(N)(=O)=O)cn2)C1 (configuration not stated) | 22.8 |  |  |  |  | 
> 50000 | 140 | 134 | 1 | 1950 | 30 | C[C@@H]1CN(c2c(C#N)c(C(F)(F)F)nn2-c2ccc(S(C)(=O)=O)cn2)C[C@H](C)O1 | > 357 |  |  |  |  | 
> 50000 | 5000 |  |  |  |  | C[C@@H]1CN(c2c(C#N)c(C(F)F)nn2-c2ccc(S(N)(=O)=O)cn2)C[C@H](C)O1 | > 10 |  |  |  |  | 
2000 | 30 | 151 | 0.5 | 450 | 4.6 | CC1CCCN(c2c(C#N)c(C(F)F)nn2-c2ccc(S(C)(=O)=O)cn2)C1 (configuration not stated) | 75 |  |  |  |  | 
15500 | 140 |  |  |  |  | N#Cc1c(C(F)(F)F)nn(-c2ccc(S(N)(=O)=O)cn2)c1NC1CC2CCC1C2 (configuration not stated) | 107 |  |  |  |  | 
20900 | 420 |  |  |  |  | CS(=O)(=O)c1ccc(-n2nc(C(F)F)c(C#N)c2NC2CC3CCC2C3)nc1 (configuration not stated) | 49.8 |  |  |  |  | 
> 50000 | 190 |  |  |  |  | CS(=O)(=O)c1ccc(-n2nc(C(F)F)c(C#N)c2NCC2OCCO2)nc1 | > 259 |  |  |  |  | 
7000 | 210 | 506 | 0.5 | 2100 | 1.5 | C[C@@H]1C[C@H](C)CN(c2c(C#N)c(C(F)F)nn2-c2ccc(S(N)(=O)=O)cn2)C1 | 34.7 |  |  |  |  | 
> 50000 | 150 |  |  |  |  | CS(=O)(=O)c1ccc(-n2nc(C(F)(F)F)c(C#N)c2N2CCCCC2)nc1 | > 325 |  |  |  |  | 
5600 | 125 |  |  |  |  | CS(=O)(=O)c1ccc(-n2nc(C(F)(F)F)c(C#N)c2NCc2cccs2)nc1 | 44.5 |  |  |  |  | 
> 50000 | 230 |  |  |  |  | CC(C)(C)CNc1c(C#N)c(C(F)(F)F)nn1-c1ccc(S(C)(=O)=O)cn1 | > 217 |  |  |  |  | 
22000 | 110 |  |  |  |  | CS(=O)(=O)c1ccc(-n2nc(C(F)(F)F)c(C#N)c2NCC2CC2)nc1 | 200 |  |  |  |  | 
21500 | 115 |  |  |  |  | Cc1ccc(CNc2c(C#N)c(C(F)(F)F)nn2-c2ccc(S(C)(=O)=O)cn2)cc1 | 187 |  |  |  |  | 
3400 | 132 |  |  |  |  | CC(C)C(C)Nc1c(C#N)c(C(F)(F)F)nn1-c1ccc(S(C)(=O)=O)cn1 (configuration not stated) | 25.8 |  |  |  |  | 
36300 | 200 |  |  |  |  | CC(C)(C)CNc1c(C#N)c(C(F)F)nn1-c1ccc(S(C)(=O)=O)cn1 | 180 |  |  |  |  | 
4000 | 200 |  |  |  |  | CCC(C)CNc1c(C#N)c(C(F)F)nn1-c1ccc(S(N)(=O)=O)cn1 (configuration not stated) | 21.9 |  |  |  |  | 
> 50000 | 95 |  |  |  |  | CC1CC(C)CN(c2c(C#N)c(C(F)(F)F)nn2-c2ccc(S(C)(=O)=O)cn2)C1 (configuration not stated) | > 526 |  |  |  |  | 
18000 | 360 |  |  |  |  | CC(C)(C)CNc1c(C#N)c(C(F)F)nn1-c1ccc(S(N)(=O)=O)cn1 | 48.2 |  |  |  |  | 
14600 | 1250 | 528 | 1.5 | 1360 | 1 | N#Cc1c(C(F)(F)F)nn(-c2ccc(S(N)(=O)=O)cn2)c1NCC1CCCO1 (configuration not stated) | 11.7 |  |  |  |  | 
15500 | 144 |  |  |  |  | CS(=O)(=O)c1ccc(-n2nc(C(F)(F)F)c(C#N)c2NC2CC3CCC2C3)nc1 (configuration not stated) | 107 |  |  |  |  | 
6700 | 197 |  |  |  |  | CCC(CC)Nc1c(C#N)c(C(F)(F)F)nn1-c1ccc(S(C)(=O)=O)cn1 | 33.8 |  |  |  |  | 
16500 | 63 | 86 | 0.5 | 118 | 2 | CS(=O)(=O)c1ccc(-n2nc(C(F)(F)F)c(C#N)c2NCC2CCCO2)nc1 (configuration not stated) | 262 |  |  |  |  | 
40800 | 360 |  |  |  |  | CC(C)Nc1c(C#N)c(C(F)(F)F)nn1-c1ccc(S(C)(=O)=O)cn1 | 114 |  |  |  |  | 
13200 | 130 |  |  |  |  | CC(C)(C)CNc1c(C#N)c(C(F)(F)F)nn1-c1ccc(S(N)(=O)=O)cn1 | 98.7 |  |  |  |  | 
> 50000 | 126 |  |  |  |  | CS(=O)(=O)c1ccc(-n2nc(C(F)(F)F)c(C#N)c2NCC2OCCO2)nc1 | > 397 |  |  |  |  | 

Compound | IC50 [2] [nM] | IC50 [3] [nM] | Cmax [4] [ng/mL] | Tmax [5] [h] | AUC [6] [ng·h/mL] | half-life [7] [h] | Ratio IC50 [1] | Activity [8] | Tmax [9] [h] | half-life [10] [h] | Cmax [11] [ng/mL] | AUC [12] [ng·h/mL]
C[C@@H]1CN(c2c(C#N)c(C(F)F)nn2-c2ccc(S(C)(=O)=O)cn2)C[C@H](C)O1 | 43800 | 240 | 815 | 1.4 | 4830 | 11 | 186 | Active | 28 | 60 | 194 | 26800
